The results in this text go back to patent publication US20200188473A1, “COMBINATION THERAPY FOR CANCER” (BETH ISRAEL DEACONESS MEDICAL CENTER, INC., priority 2017, published 2020).

The subject of one experiment is ACE2. In words: transcriptome analysis of untreated vs resistant xenograft tumors. Format: in vivo, mice. As to conditions: for ACE2 down modulation in resistant tumors vs control untreated tumors: 786-0 model. On the procedure: Transcriptome analysis of the untreated tumors vs the resistant tumors was performed. ACE2 was the second most down-modulated gene common to the sorafenib and sunitinib treated 786-0 model with a 2.4 fold down modulation in the resistant tumors vs the control untreated tumors. Moreover, ACE2 was in the top 3 most down-modulated genes in the A498 tumor model with a 5-fold decrease i n resistant tumors vs untreated tumors (P<0.001).

Experiment [1] relates to human VHL deficient RCC cell lines (A498). As to conditions: A498 xenograft; treatment begun at 12 mm diameter; resistance = time to grow 2 mm beyond pretreatment size; sunitinib 30 mg/kg daily by gavage.
Method: A murine xenograft system to study resistance antiangiogenic agents was developed. To assess the effects of antiangiogenic therapy on the growth of human RCC xenografts, established human VHL deficient RCC cell lines (A498) were implanted subcutaneously (1×10^7 cells) into the flanks of 6-8 week old nude/beige mice. The tumors were measured in two axes and the largest axis was followed. Treatment with sunitinib or sorafenib was begun when the tumors reached a diameter of 12 mm (roughly 3 weeks after injection) and resistance to this treatment was monitored. Resistance was defined as the time required for a tumor to grow 2 mm beyond its pretreatment size. […] This model was used to study the mechanisms by which tumors escape angiogenesis inhibition.
The effect of sunitinib and Ang(1-7) on the growth of human RCC xenografts was tested. 1×10^7 cells were injected into the flanks of nude-beige mice. Established human VHL deficient RCC cell lines (A498) were implanted subcutaneously (1×10^7 cells) into the flanks of 6-8 week old nude/beige mice. The tumors were measured in two axes and the largest axis was followed. Treatment with sunitinib (30 mg/kg daily by gavage) and Ang(1-7) 1 mg/kg Ang(1-7) IP three times per week was begun when the tumors reached a diameter of 12 mm (roughly 3 weeks after injection). […]

Regarding `CNC(=O)c1cc(Oc2ccc(NC(=O)Nc3ccc(Cl)c(C(F)(F)F)c3)cc2)ccn1` [sorafenib], the “ACE2 down modulation in resistant tumors vs control untreated tumors” value in the experiment with ACE2 is reported as 2.4 fold.

`CCN(CC)CCNC(=O)c1c(C)[nH]c(/C=C2\C(=O)Nc3ccc(F)cc32)c1C` [sunitinib]: the “ACE2 down modulation in resistant tumors vs control untreated tumors” value in the experiment with ACE2 came out at 2.4 fold. For the same molecule, in the experiment with ACE2 (murine xenograft system, sunitinib treatment), the ACE2 expression entry is “loss of ACE2 expression”. For the same molecule, in experiment [1], the “period of relative stabilization” value lay in the range of 10 to 12 days.
